Here are results for 15 compounds from patent US10028961B2, “Therapeutically active compounds and their methods of use” (AGIOS PHARMACEUTICALS, INC., priority 2013, dated 2018).

Assay [1] has as its target IDH1-R132 homodimer enzyme (R132H) (Homo sapiens (Human), UniProt O75874, R132H). In words: In vitro assay IDH1-R132H homodimer, NADPH depletion assay. The assay is classed as biochemical. As for the experimental part: (§1) The following describes the experimental procedures that can be used to obtain data on columns 3 and 6 of Table 4.
(§2) A test compound is prepared as 10 mM stock in DMSO and diluted to 50× final concentration in DMSO, for a 50 μl reaction mixture. IDH enzyme activity converting alpha-ketoglutarate to 2-hydroxyglutaric acid is measured using a NADPH depletion assay. In the assay the remaining cofactor is measured at the end of the reaction with the addition of a catalytic excess of diaphorase and resazurin, to generate a fluorescent signal in proportion to the amount of NADPH remaining. […] The reaction is started with the addition of 10 μl of Substrate Mix ([…], 5 mM alpha-ketoglutarate, in Assay Buffer) and the mixture is incubated for 90 minutes at room temperature.

The target of the next assay is IDH1 R132C (Homo sapiens (Human), UniProt O75874, R132C). In words: In vitro assay IDH1 R132C homodimer, NADPH depletion assay. The assay is classed as biochemical. On the procedure: as §1, §2
The concentration of NADPH and alpha-ketoglutarate in the Substrate Buffer is 20 μM and 1 mM, respectively.

Another assay deals with HT1080 cells. In words: Cellular assay for IDH1m R132C inhibitors, 2-HG by LC-MS in HT1080 cells. The assay is classed as cell-based. Particulars: Homo sapiens, HT-1080. Put shortly: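 HT1080 cells at 5000 cells/well were treated with compound (0.2% DMSO final). After 48 h, 2-HG in the medium was measured by LC-MS. Viability was read by CellTiter-Glo luminescence at 72 h.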

The target of assay [2] is T1, IDH2 R140Q (Homo sapiens (Human), UniProt P48735, R140Q). In words: In vitro assay for IDH2m R140Q inhibitors, cofactor depletion assay. The assay is classed as biochemical. Particulars: IDH2 R140Q enzyme. Put shortly:
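Remaining cofactor measured fluorimetrically: diaphorase/resazurin Stop Mix […], halting the reaction. Before that, mutant enzyme and compound sat 1 h at RT, then substrate mix (4 μM NADPH, 1.6 mM α-KG) was added for 16 h at RT.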

The subject of assay [3] is U87MG pLVX-IDH2 R140Q-neo cells. Briefly: U87MG pLVX-IDH2 R140Q-neo cell based assay, 2-HG by LC-MS. As to conditions: Homo sapiens, U-87 MG.
The target of assay [4] is IDH1-R132H homodimer enzyme (Homo sapiens (Human), UniProt O75874, R132H). Briefly: In vitro assay IDH1-R132H homodimer, NADPH depletion assay with NADPH/NADP preincubation. Particulars: 5 μM NADPH and 37.5 μM NADP. The assay is classed as biochemical. Put shortly:
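Conversion of alpha-ketoglutarate to 2-hydroxyglutarate tracked by NADPH depletion. Reaction started with 5 mM alpha-ketoglutarate plus NADPH substrate mix (50 μl total), 60 min at room temperature. Leftover NADPH quantified via diaphorase/resazurin fluorescence.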

For assay [5], the target named is T1, IDH2 R140Q. In words: In vitro assay for IDH2m R140Q inhibitors, cofactor depletion assay, 16 hr preincubation with NADPH/NADP. Type of assay: biochemical. Particulars: read-out: IDH2 R140Q 16 hr NADPH/NADP IC50; 16 hrs preincubation with enzyme, 5 uM NADPH and 750 uM NADP. The text has this:
The following describes the experimental procedures used to obtain data on column 6 of Table 5.
The reaction is terminated by the addition of a second enzyme, diaphorase, and a corresponding substrate, resazurin. Diaphorase reduces resazurin to the highly fluorescent resorufin with the concomitant oxidation of NADPH to NADP, both halting the IDH2 reaction by depleting the available cofactor pool and facilitating quantitation of the amount of cofactor remaining after a specific time period through quantitative production of an easily detected fluorophore.
The test compound is then incubated for 16 hrs at room temperature with the enzyme and cofactors before starting the IDH2 reaction with the addition of 10 μl of substrate mix containing 8 mM α-KG (final concentration 1.6 mM) in the buffer described above. After a further 1 hour of incubation at room temperature, the reaction is halted and the remaining NADPH measured through conversion of resazurin to resorufin by the addition of 25 μl Stop Mix (36 μg/ml diaphorase enzyme and 60 μM resazurin; in buffer).

Assay [6] addresses IDH1 wt/IDH1 R132H heterodimer (Homo sapiens (Human), UniProt O75874, R132H). In words: In vitro assay for IDH1m R132H inhibitors, IDH1 wt/IDH1 R132H heterodimer, NADPH depletion (diaphorase/resazurin). As to conditions: IDH1 wt/R132H heterodimer, NADPH/NADP, not saturated; read-out: IDH1 wt/R132H NADPH/NADP IC50 not saturated. Type of assay: biochemical. The gist of the method: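 Purified IDH1wt-his/IDH1R132H-flag heterodimer (sf9 co-expression) pre-incubated 1 hr at room temperature with compound and NADPH before α-KG addition. Remaining NADPH read by diaphorase/resazurin conversion to fluorescent resorufin, 5 min at 25° C. Compounds diluted 1:50 from DMSO; IC50 determined.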
Background: Resazurin is reduced to fluorescent resorufin, in cell work by metabolically active cells.

Assay [7] addresses IDH1 wt/IDH1 R132C heterodimer (Homo sapiens (Human), UniProt O75874, R132C). Briefly: In vitro assay for IDH1m R132C inhibitors, IDH1 wt/IDH1 R132C heterodimer, NADPH depletion (diaphorase/resazurin). The assay is classed as biochemical. As to conditions: NADPH/NADP. As for the experimental part:
The following describes the experimental procedures that can be used to obtain data on columns 2 and 4 of Table 4 and column 2 of Table 5.
In the primary reaction, the reduction of α-KG acid to 2-HG is accompanied by a concomitant oxidation of NADPH to NADP. The amount of NADPH remaining at the end of the reaction time is measured in a secondary diaphorase/resazurin reaction in which the NADPH is consumed in a 1:1 molar ratio with the conversion of resazurin to the highly fluorescent resorufin.
The mixture of compound, enzyme, and cofactor is pre-incubated at room temperature for 1 hr prior to the addition of alpha-ketoglutarate. To perform the secondary reaction, 10 uL of 1× buffer containing 36 μg/ml diaphorase and […] resazurin is added to the primary reaction and incubated for a further 5 minutes at 25° C. Florescence is read on a Spectramax platereader at Ex 544 Em 590. Compounds or compound dilutions are prepared in 100% DMSO concentration and diluted 1:50 into the final reaction. […] IC50s are determined.
IDH1 or IDH2 wildtype (wt) and mutant heterodimers are expressed and purified by methods known in the art. For example, IDH1wt/R132m heterodimer is expressed and purified as follows. Co-expression of IDH1wt-his and IDH1R132C-flag is carried out in sf9 insect cells. Cells (25 g) are resuspended in 250 ml of 50 mM Tirs, 500 mM NaCl, pH7.4, at 4° C. with stirring. Cells are disrupted with 4 passes through an M-Y110 Micro fluidizer (Microfluidics) set to 500 psi, and then centrifuged at 22,000 rcf for 20 min at 4° C. The supernatant is harvested and loaded at 15 cm/h on a Histrap FF 5*1 ml column (GE) which is equilibrated with 50 mM Tirs, 500 mM NaCl, pH7.4. Host cell contaminants are removed by washing the column with equilibration buffer followed by equilibration buffer containing 20 mM imidazole and 60 mM imidazole to baseline. IDH1wt-his homodimer and IDH1wt-his/IDH1R132C-flag are eluted by equilibration buffer containing 250 mM imidazole. Fractions eluted by 250 mM imidazole are pooled together and loaded at 15 cm/h onto a column pre-packed with 10 ml ANTI-FLAG® M2 Affinity Gel (Sigma), the column is equilibrated with 50 mM Tris, 500 mM NaCl, pH7.4. After washing with equilibration buffer, IDH1wt-his/IDH1R132C-flag heterodimer is eluted by equilibration buffer containing flag peptide (0.2 mg/ml). Aliquots of IDH1wt-his/IDH1R132C-flag are flash frozen in liquid N2 and stored at −80° C. Same conditions are used for the purification of IDH1wt-his/IDH1R132H-flag.

Chain of IDH1 wt/IDH1 R132C heterodimer (O75874 whole entry R132C): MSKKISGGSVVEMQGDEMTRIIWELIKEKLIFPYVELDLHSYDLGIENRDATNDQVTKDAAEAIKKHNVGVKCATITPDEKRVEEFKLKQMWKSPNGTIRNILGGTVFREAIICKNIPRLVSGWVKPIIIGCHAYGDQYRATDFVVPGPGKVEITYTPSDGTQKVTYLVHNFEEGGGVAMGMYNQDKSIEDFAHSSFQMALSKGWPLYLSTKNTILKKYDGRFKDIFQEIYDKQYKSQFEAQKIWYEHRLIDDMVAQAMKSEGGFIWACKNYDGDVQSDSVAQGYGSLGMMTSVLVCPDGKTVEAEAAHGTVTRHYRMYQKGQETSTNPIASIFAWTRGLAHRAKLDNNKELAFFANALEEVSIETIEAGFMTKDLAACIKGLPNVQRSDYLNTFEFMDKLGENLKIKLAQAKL
Chain of IDH1 wt/IDH1 R132C heterodimer (O75874 whole entry, stated change not applied): as the sequence (O75874 whole entry R132C) above, with C132R counted along it
T1 sequence (P48735 40-452 R140Q): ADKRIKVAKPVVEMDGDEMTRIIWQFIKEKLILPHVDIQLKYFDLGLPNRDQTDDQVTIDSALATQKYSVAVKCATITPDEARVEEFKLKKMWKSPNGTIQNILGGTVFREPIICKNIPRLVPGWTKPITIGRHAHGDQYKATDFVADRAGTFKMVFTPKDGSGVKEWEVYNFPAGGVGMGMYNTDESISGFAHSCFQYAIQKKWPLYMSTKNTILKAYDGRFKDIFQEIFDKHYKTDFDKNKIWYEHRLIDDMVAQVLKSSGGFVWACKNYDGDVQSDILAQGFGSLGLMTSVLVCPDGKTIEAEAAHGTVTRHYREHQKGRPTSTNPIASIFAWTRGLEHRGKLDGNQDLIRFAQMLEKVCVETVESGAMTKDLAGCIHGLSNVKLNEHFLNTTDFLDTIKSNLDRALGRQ
Chain of IDH1 wt/IDH1 R132H heterodimer (O75874 whole entry R132H): as the sequence (O75874 whole entry R132C) above, with C132H counted along it
Chain of IDH1 wt/IDH1 R132H heterodimer (O75874 whole entry, stated change not applied): as the sequence (O75874 whole entry R132C) above, with C132R counted along it
Chain of IDH1-R132H homodimer enzyme (O75874 whole entry R132H): as the sequence (O75874 whole entry R132C) above, with C132H counted along it
Chain of IDH1 R132C (O75874 whole entry R132C): as the sequence (O75874 whole entry R132C) above
Chain of IDH1-R132 homodimer enzyme (R132H) (O75874 whole entry R132H): as the sequence (O75874 whole entry R132C) above, with C132H counted along it

Turning to `C[C@@H](Nc1nc(N[C@H](C)C2CC2)nc(-c2cccc(C(F)(F)F)n2)n1)C1CC1` [Compound 2], the IC50 (in [1]; against IDH1 R132C; in the assay with HT1080 cells; on IDH2 R140Q [2]; in assay [3]) was less than 50 nM throughout.
Consider `FC1(F)CCC(Nc2nc(NC3CCC(F)(F)C3)nc(-c3cccc(C(F)(F)F)n3)n2)C1` (centres unmarked) [Compound 31], for which the IC50 (in assay [1]; at IDH1 R132C; with HT1080 cells; on IDH2 R140Q [2]) was less than 50 nM throughout.
Regarding `C[C@@H](Nc1nc(NC2C3CC4CC(C3)CC2C4)nc(-c2cccc(C(F)(F)F)n2)n1)C1CC1` (some centres unmarked) [Compound 234], the IC50 is 100 to 1000 nM in [4], 100 to 1000 nM at IDH2 R140Q [5] and less than 50 nM in assay [6].
As to `CC(COC(C)C)Nc1nc(N[C@H](C)C2CC2)nc(-c2cccc(C(F)(F)F)n2)n1` (some centres unmarked) [Compound 241], the IC50 in assay [4] was 100 to 1000 nM; at IDH2 R140Q [5] it was 50 to 100 nM; in assay [6] it was less than 50 nM; in assay [7], 100 to 1000 nM.
Turning to `C[C@@H](Nc1nc(NCCOc2ccccc2)nc(-c2cccc(C(F)(F)F)n2)n1)C1CC1` [Compound 246], the IC50 in assay [4] was 100 to 1000 nM; at IDH2 R140Q [5], less than 50 nM; in assay [6], 50 to 100 nM; against IDH2 R140Q [2] it was 50 to 100 nM; in assay [7] it was 50 to 100 nM; in [3] it was 50 to 100 nM.
Turning to `CC(C)(O)CNc1nc(Nc2cccc(Cl)c2)nc(-c2cccc(C(F)(F)F)n2)n1` [Compound 248], the IC50 at IDH2 R140Q [5] is less than 50 nM; in assay [6], 50 to 100 nM; on IDH2 R140Q [2] it was 100 to 1000 nM; in assay [7], 100 to 1000 nM; in assay [3] it was less than 50 nM.
Regarding `C[C@@H](Nc1nc(NCC(C)(C)C#N)nc(-c2cccc(C(F)(F)F)n2)n1)C1CC1` [Compound 262], the IC50 in assay [4] is more than 1000 nM; at IDH2 R140Q [5] it was 100 to 1000 nM; in assay [6] it was 100 to 1000 nM; in assay [7] it was 100 to 1000 nM.
Regarding `FC1(F)CC2(CC(Nc3nc(NC4CC5(C4)CC(F)(F)C5)nc(-c4cccc(Cl)n4)n3)C2)C1` [Compound 265], the IC50 in assay [4] was more than 1000 nM; on IDH2 R140Q [5], 100 to 1000 nM; in [6], 100 to 1000 nM; in assay [7], 100 to 1000 nM.
For `CC(C)(C#N)CNc1nc(Nc2ccnc(C(C)(F)F)c2)nc(-c2cccc(C(F)(F)F)n2)n1` [Compound 267], the IC50 in assay [4] was more than 1000 nM; on IDH2 R140Q [5], 50 to 100 nM; in [6], 100 to 1000 nM; on IDH2 R140Q [2], less than 50 nM; in [7], 100 to 1000 nM; in [3], less than 50 nM.
Turning to `CC(CC#N)Nc1nc(NC(C)CC#N)nc(-c2cccc(Cl)n2)n1` (centres unmarked) [Compound 271], the IC50 (in assay [4]; at IDH2 R140Q [5]; in assay [6]; in assay [7]) was 100 to 1000 nM throughout.
For the compound `CC(C)(C)OC(=O)N1CCC(Nc2nc(NC3CCC(F)(F)CC3)nc(-c3cccc(C(F)(F)F)n3)n2)CC1` [Compound 274], the IC50 was more than 1000 nM in assay [4], 100 to 1000 nM on IDH2 R140Q [5], 100 to 1000 nM in assay [6] and 100 to 1000 nM in assay [7].
On to `CC(C)(C)Nc1nc(Nc2ccnc(C(C)(F)F)c2)nc(-c2nccc(C(F)(F)F)n2)n1` [Compound 289], for which the IC50 in [4] was more than 1000 nM; at IDH2 R140Q [5] it was 50 to 100 nM; in [6] it was 100 to 1000 nM; against IDH2 R140Q [2], less than 50 nM; in assay [7], not below 1000 nM; in [3], less than 50 nM.
Turning to `CC(C)Nc1nc(Nc2ccnc(C(C)(F)F)c2)nc(-c2nccc(C(F)(F)F)n2)n1` [Compound 298], the IC50 in [4] was more than 1000 nM; at IDH2 R140Q [5] it was 50 to 100 nM; in [6], 100 to 1000 nM; against IDH2 R140Q [2], less than 50 nM; in assay [7], not below 1000 nM; in assay [3], less than 50 nM.
For `CC(C)(O)CNc1nc(Nc2cc(F)cc(F)c2)nc(-c2nccc(C(F)(F)F)n2)n1` [Compound 325], the IC50 was 50 to 100 nM at IDH2 R140Q [5]; more than 1000 nM in assay [6]; less than 50 nM at IDH2 R140Q [2]; not below 1000 nM in assay [7]; less than 50 nM in assay [3].
In the case of `C[C@@H](Nc1cc(NC2CCC(F)(F)CC2)nc(-c2cccc(Cl)n2)n1)C(F)(F)F` [Compound 418], the IC50 at IDH2 R140Q [5] was less than 50 nM; in [6], 50 to 100 nM.
